Several values for one entry are separate records, joined by “and”; a condition that tells them apart may be missing. Equal values may be shown once.
Assays:
[1] = system: patients with long-standing RA who had inadequate responses to MTX; experiment: Study 1 (adalimumab + MTX vs placebo + MTX, 12-month RCT plus OLE): radiographic progression (TSS, JE, JSN); format: in vivo, human
Experimental: The study design included a 12 month, double blind, randomized, placebo-controlled trial.
(§1) Patients were grouped into three cohorts based on baseline CRP concentrations: low (<1 mg/dL); intermediate (1-4 mg/dL); and high (>4 mg/dL). Analyses were further conducted in two categories of patients according to their change in CRP concentrations at Week 12: those with a ≧20% decrease in CRP from baseline; or those with a <20% decrease in CRP from baseline. The following efficacy and radiographic measures were analyzed at Week 52 in the three baseline CRP categories and in the two Week 12 change in CRP categories: DAS28, ACR 20/50/70, Health assessment questionnaire (HAQ), and Total Sharp score (TSS).
(§2) Two readers assessed X-rays performed at baseline (start of RCT), 1 year (end of RCT), and 3 years (post 2 years OLE). Changes from baseline in Total Sharp Score (TSS), Joint Erosions (JE), and Joint Space Narrowing (JSN) were calculated. ACR 20, 50, and 70 response rates, as well as TJC and SJC, were also measured.

[2] = system: MTX-naïve adult patients with active, early RA (<3 years); experiment: Study J: individual clinical remission criteria (TJC=0, SJC=0, HAQ=0, morning stiffness=0); format: in vivo, human
Experimental: A total of 799 patients were enrolled. Baseline demographics and clinical characteristics of the patients enrolled in this study are described in Example 7. Baseline demographics and clinical characteristics were similar among the 3 arms, i.e., ada+mtx, ada alone, or mtx alone. […] After 1 and 2 years of therapy, the percentages of patients with ACR90 responses, TJC=0, SJC=0, HAQ=0, morning stiffness=0 minutes, and normal CRP were determined. Data are from the intention-to-treat (ITT) population with imputation used for missing values. Results were compared with the percentages of patients who achieved DAS28<2.6 or a Major Clinical Response (MCR).

[3] = system: patients with long-standing RA who had inadequate responses to MTX; experiment: Study 1: ACR20/50/70 response; format: in vivo, human
Experimental: as §1, §2

[4] = system: MTX-naïve adult patients with active, early RA (<3 years); experiment: Study J: subject disposition and withdrawals; conditions: 2 years
[5] = week 52, baseline CRP 1-4 mg/dL
[6] = 3 years, initially randomized to 40 mg eow

**Q.** What does the source list for `CN(Cc1cnc2nc(N)nc(N)c2n1)c1ccc(C(=O)N[C@@H](CCC(=O)O)C(=O)O)cc1` [mtx alone, methotrexate]?
**A.** Erosions mean change [1, 5]: 1.7; TSS mean change ([1]; week 52, baseline CRP 1-4 mg/dL, listed as MTX): 3.0; TSS mean change ([1]; week 52, baseline CRP 1-4 mg/dL, listed as Mtx): 3.25 (n = 54); Erosions mean change ([1]; week 52, baseline CRP <1 mg/dL): 1.5; TSS mean change ([1]; week 52, baseline CRP <1 mg/dL, listed as MTX): 2.1; TSS mean change ([1]; week 52, baseline CRP <1 mg/dL, listed as Mtx): 1.8 (n = 71); Erosions mean change ([1]; week 52, baseline CRP >4 mg/dL): 2.1; TSS mean change ([1]; week 52, baseline CRP >4 mg/dL, listed as MTX): 4.5; TSS mean change ([1]; week 52, baseline CRP >4 mg/dL, listed as Mtx): 4.23 (n = 15); HAQ = 0 ([2]; 1 year): 19 % patients; Morning Stiffness = 0 ([2]; 1 year): 31 % patients; SJC = 0 ([2]; 1 year): 17 % patients; TJC = 0 ([2]; 1 year): 14 % patients; AM (morning) stiffness = 0 ([2]; 2 years): 30 % of patients; HAQ = 0 ([2]; 2 years): 19 % of patients; SJC = 0 ([2]; 2 years): 19 % of patients; TJC = 0 ([2]; 2 years): 21 % of patients; ACR20 [3, 5]: 36 % responders; ACR50 [3, 5]: 18 % responders; ACR70 [3, 5]: 9 % responders; ACR20 ([3]; week 52, baseline CRP <1 mg/dL): 30 % responders; ACR50 ([3]; week 52, baseline CRP <1 mg/dL): 13 % responders; ACR70 ([3]; week 52, baseline CRP <1 mg/dL): 6 % responders; ACR20 ([3]; week 52, baseline CRP >4 mg/dL): 47 % responders; ACR50 ([3]; week 52, baseline CRP >4 mg/dL): 0 % responders; ACR70 ([3]; week 52, baseline CRP >4 mg/dL): 0 % responders; withdrawn, reason AE [4]: 8%; withdrawn, reason lack of efficacy [4]: 18%

**Q.** What does the source list for “adalimumab: human anti-TNF mAb (HUMIRA, Abbott Laboratories), described in U.S. Pat. No. 6,090,382 as D2E7”?
**A.** patients with radiographic improvement (change <−0.5 units), total sharp score ([1]; 3 years): 28%; patients with radiographic improvement, joint erosion score ([1]; 3 years): 29%; patients with radiographic improvement, joint space narrowing score ([1]; 3 years): 20%; patients with no radiographic progression, joint erosion score [1, 6]: 71%; patients with no radiographic progression, joint space narrowing score [1, 6]: 73%; patients with no radiographic progression, total sharp score [1, 6]: 62%; HAQ = 0 ([2]; 1 year): 17 % patients; Morning Stiffness = 0 ([2]; 1 year): 32 % patients; SJC = 0 ([2]; 1 year): 16 % patients; TJC = 0 ([2]; 1 year): 18 % patients; AM (morning) stiffness = 0 ([2]; 2 years): 30 % of patients; HAQ = 0 ([2]; 2 years): 19 % of patients; SJC = 0 ([2]; 2 years): 19 % of patients; TJC = 0 ([2]; 2 years): 15 % of patients; ACR20 ([3]; month 12): 69%; ACR50 ([3]; month 12): 48%; ACR70 ([3]; month 12): 26%; ACR20 ([3]; month 24): 63%; ACR50 ([3]; month 24): 43%; ACR70 ([3]; month 24): 28%; ACR20 ([3]; month 36): 58%; ACR50 ([3]; month 36): 42%; ACR70 ([3]; month 36): 24% and 23%; withdrawn, reason lack of efficacy [4]: 19%
